Test results from patent US9353089B2, “Compositions and methods for the treatment of malaria” (Saint Louis University, priority 2013, dated 2016).
Where two headings read alike, the source gives them in different places.

Legend:
[1] = biological target: Plasmepsin-2 (PM-2; Plm II) (Plasmodium falciparum (isolate HB3), UniProt P46925); assay: Plasmepsin-2 enzyme inhibition assay; type: biochemical
Description: Plasmepsin-2 (PM-2; Plm II) and Plasmepsin (PM-4; Plm IV) expression and purification was performed following the published protocols (Istvan E S and Goldberg D E, 2005). The final purified protein was activated by diluting the protein to 0.3 mg/mL in activating buffer (0.1 M citrate pH 4.5, 0.1% Tween-20, 50 mM dithiothreitol) and incubated at room temperature for 40 min, then the activated enzyme was diluted in assay buffer (50 mM sodium acetate pH 4.7, 0.01% Tween-20). The enzymatic inhibition reaction was performed in 384 well plates with a total volume of 20 μl. 10 μl of diluted PM-2 or PM-4 enzyme was added to the 384-well plate except blank wells (blank wells add 10 μL of assay buffer) and 20 nL of serials of diluted 1000× compounds were added to the wells with 520 Echo® Liquid Handling System (Labcyte Inc.). 10 μL PM-2 peptide substrate (AnaSpec, Cat#, 62050) with assay buffer was then added to final concentration of 20 μM to start the reaction. After incubation the reaction at room temperature for 60 min, the fluorescence intensity at Ex/Em=360 nm/535 nm was measured using EnVision multilabel plate reader (Perkin-Elmer). The IC50 values were obtained using Graph Pad Prism 4 and are reported in Tables 8 and 9 below as PM-2 IC50 values.

recombinant human BACE1 = recombinant human BACE1 (Homo sapiens, UniProt P56817); assay: β-Secretase (BACE1) enzyme inhibition FRET assay; type: biochemical; settings: Table 13; read-out: BACE1 IC50
Description: The enzymatic inhibition activity assays were determined using the fluorescence resonance energy transfer (FRET) assay. The assays were performed in a 384-well plate format. […] CatD and CatE were activated by incubation in assay buffer (0.1 M NaOAc, 0.2 M NaCl, pH 3.5) at room temperature for 30 min. Subsequently, the rhBACE-1 substrate (R&D Systems, catalog# ES004), the Cathepsin D and Cathepsin E substrate (R&D Systems, Catalog # ES001) were added accordingly to final concentration 20 μM to initiate the reaction. After 60 min incubation at room temperature, the time-resolved fluorescence at Ex/Em=360 nm/460 nm was measured on an EnVision multilabel plate reader (Perkin-Elmer). The analytical software, GraphPad Prism 5.0 (GraphPad Software, Inc., USA) was used to generate IC50 values via non-linear regression analysis, which are reported in Tables 8-13 below as BACE1 IC50 values.

[2] = tested on: Plasmodium falciparum 3D7 (CQ-sensitive); assay: In vitro antimalarial assay (malaria SYBR Green I-based fluorescence, MSF), 3D7; type: cell-based; settings: for inhibition of growth at 1 µM: 3D7, 72 h, read-out: 3D7 % inh @ 1 μM
How it was run: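 Asynchronous P. falciparum 3D7 cultures (0.5% parasitemia, 2% hematocrit) were exposed to serially diluted compounds, in quadruplicate. Growth was then quantified by SYBR Green I fluorescence after adding lysis buffer containing 0.2 μL/mL dye.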

[3] = 3D7, read-out: 3D7 IC50 (μM), Table 13
[4] = 3D7, read-out: Pf3D7 IC50 (μM), Table 10
[5] = 3D7, Table 13, read-out: 3D7 IC50

Sequence of Plasmepsin-2 (PM-2; Plm II) (P46925 125-453 limits assumed): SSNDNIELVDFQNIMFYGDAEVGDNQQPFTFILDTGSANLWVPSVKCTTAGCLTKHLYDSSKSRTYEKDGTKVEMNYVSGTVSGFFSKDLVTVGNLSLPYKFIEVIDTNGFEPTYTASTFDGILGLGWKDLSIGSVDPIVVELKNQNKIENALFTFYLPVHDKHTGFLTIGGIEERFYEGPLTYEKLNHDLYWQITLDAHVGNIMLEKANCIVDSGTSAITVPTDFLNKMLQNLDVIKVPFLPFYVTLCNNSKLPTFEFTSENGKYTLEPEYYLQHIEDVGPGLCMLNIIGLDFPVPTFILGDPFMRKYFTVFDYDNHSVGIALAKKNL
Sequence of recombinant human BACE1 (P56817 46-501 limits assumed): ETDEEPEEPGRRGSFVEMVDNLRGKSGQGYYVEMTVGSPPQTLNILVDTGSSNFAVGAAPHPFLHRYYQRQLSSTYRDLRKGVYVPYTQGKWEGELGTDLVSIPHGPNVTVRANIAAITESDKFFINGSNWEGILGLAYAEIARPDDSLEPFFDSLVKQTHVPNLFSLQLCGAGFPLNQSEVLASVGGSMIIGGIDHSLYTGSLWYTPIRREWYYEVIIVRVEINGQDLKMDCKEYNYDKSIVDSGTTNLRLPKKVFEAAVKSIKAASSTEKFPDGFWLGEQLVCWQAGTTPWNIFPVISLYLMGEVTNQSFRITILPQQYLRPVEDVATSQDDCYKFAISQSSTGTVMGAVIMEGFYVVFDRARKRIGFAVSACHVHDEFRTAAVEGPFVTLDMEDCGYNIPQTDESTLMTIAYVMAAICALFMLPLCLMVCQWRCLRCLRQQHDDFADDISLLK

COc1ccc(C2(c3ccc(OC)cc3)NC(=N)N(C3CCN(C(=O)CCN(C)C)CC3)C2=O)cc1 [Example 322, 3-{1-[3-(dimethylamino)propanoyl]piperidin-4-yl}-2-imino-5,5-bis(4-methoxyphenyl)imidazolidin-4-one]
IC50 ([1]; Table 13, read-out: PM-2 IC50): 20.2 nM
IC50 (recombinant human BACE1): > 10000 nM
inhibition of growth at 1 µM [2]: 34%

COc1ccc(C2(c3cccnc3)NC(=N)N(C3CCOCC3)C2=O)cc1 (stereo not drawn) [Example 323, 2-imino-5-(4-methoxyphenyl)-3-(oxan-4-yl)-5-(pyridin-3-yl)imidazolidin-4-one]
IC50 ([1]; Table 13, read-out: PM-2 IC50): 74.3 nM
IC50 (recombinant human BACE1): ~10000 nM
inhibition of growth at 1 µM [2]: 31%

COc1ccc(C2(c3ccc(OC)cc3)NC(=N)N(C3CCN(C(=O)c4ccccc4)CC3)C2=O)cc1 [Example 311, 3-(1-benzoylpiperidin-4-yl)-2-imino-5,5-bis(4-methoxyphenyl)imidazolidin-4-one]
IC50 ([1]; Table 13, read-out: PM-2 IC50): 2 nM
IC50 (recombinant human BACE1): ~6800 nM
inhibition of growth at 1 µM [2]: 81%

COc1ccc(C2(c3ccc(OC)cc3)NC(=N)N(Cc3ccccc3C#N)C2=O)cc1 [Example 305, 2-{[2-imino-4,4-bis(4-methoxyphenyl)-5-oxoimidazolidin-1-yl]methyl}benzonitrile]
IC50 ([1]; Table 13, read-out: PM-2 IC50): 9.3 nM
IC50 (recombinant human BACE1): 6700 nM
inhibition of growth at 1 µM [2]: 81%

N=C1NC(c2cccc(-c3cccnc3)c2)(C2CC2)C(=O)N1C1CCOCC1 (stereo not drawn) [Example 487, 5-cyclopropyl-2-imino-5-(3-(pyridin-3-yl)phenyl)-3-(tetrahydro-2H-pyran-4-yl)imidazolidin-4-one]
IC50 ([1]; Table 13, read-out: PM-2 IC50): 512 nM
IC50 (recombinant human BACE1): 8650 nM
IC50 [2, 3]: 0.248 µM

N#Cc1cncc(-c2cccc(C3(C4CC4)NC(=N)N(C4CCOCC4)C3=O)c2)c1 (stereo not drawn) [Example 488, 5-(3-(4-cyclopropyl-2-imino-5-oxo-1-(tetrahydro-2H-pyran-4-yl)imidazolidin-4-yl)phenyl)nicotinonitrile]
IC50 ([1]; Table 13, read-out: PM-2 IC50): 443 nM
IC50 (recombinant human BACE1): 2980 nM
IC50 [2, 3]: 0.362 µM

COc1ccc(C2(C3CC3)NC(=N)N(C3CCOCC3)C2=O)cc1 (stereo not drawn) [Example 325, 5-cyclopropyl-2-imino-5-(4-methoxyphenyl)-3-(oxan-4-yl)imidazolidin-4-one]
IC50 ([1]; Table 13, read-out: PM-2 IC50): 426 nM
IC50 (recombinant human BACE1): > 10000 nM
IC50 [2, 3]: 0.752 µM

COc1ccc(C2(c3cnn(C)c3)NC(=N)N(C3CCOCC3)C2=O)cc1 (stereo not drawn) [Example 336, 2-imino-5-(4-methoxyphenyl)-5-(1-methyl-1H-pyrazol-4-yl)-3-(oxan-4-yl)-imidazolidin-4-one]
IC50 ([1]; Table 13, read-out: PM-2 IC50): 395 nM
IC50 (recombinant human BACE1): > 10000 nM
inhibition of growth at 1 µM [2]: 70%

COc1ccc(C2(c3ccc(OC)cc3)NC(=N)N(CC34CC5CC(CC(C5)C3)C4)C2=O)cc1 [Example 276, 3-(adamantan-1-ylmethyl)-2-imino-5,5-bis(4-methoxyphenyl)-imidazolidin-4-one]
IC50 ([1]; Table 13, read-out: PM-2 IC50): 2 nM
IC50 (recombinant human BACE1): 7850 nM
IC50 [2, 3]: 0.336 µM

COc1ccc(C2(C3CCCCC3)NC(=N)N(C3CCCCC3)C2=O)cc1 (stereo not drawn) [Example 447, 3,5-dicyclohexyl-2-imino-5-(4-methoxyphenyl)imidazolidin-4-one]
IC50 ([1]; Table 13, read-out: PM-2 IC50): 67.4 nM
IC50 (recombinant human BACE1): 17300 nM
IC50 [2, 3]: 0.494 µM

N=C1NC(c2cccc(-c3cncc(Cl)c3)c2)(C2CC2)C(=O)N1C1CCOCC1 (stereo not drawn) [Example 489, 5-(3-(5-chloropyridin-3-yl)phenyl)-5-cyclopropyl-2-imino-3-(tetrahydro-2H-pyran-4-yl)imidazolidin-4-one]
IC50 ([1]; Table 13, read-out: PM-2 IC50): 211 nM
IC50 (recombinant human BACE1): 1160 nM
IC50 [2, 3]: 0.268 µM

COc1ccc(C2(c3ccc(OC)cc3)NC(=N)N(C3CC3)C2=O)cc1 [Example 158, 3-cyclopropyl-2-imino-5,5-bis(4-methoxyphenyl)-imidazolidin-4-one]
IC50 ([1]; Table 13, read-out: PM-2 IC50): 392 nM
IC50 (recombinant human BACE1): > 10000 nM
IC50 [2, 3]: 4.11 µM
IC50 [2, 4]: 4.11 µM

COc1ccc(C2(c3cncnc3)NC(=N)N(C3CCOCC3)C2=O)cc1 (stereo not drawn) [Example 333, 2-imino-5-(4-methoxyphenyl)-3-(oxan-4-yl)-5-(pyrimidin-5-yl)imidazolidin-4-one]
IC50 ([1]; Table 13, read-out: PM-2 IC50): 639 nM
IC50 (recombinant human BACE1): > 10000 nM
inhibition of growth at 1 µM [2]: 9%

COc1ccc(C2(C3CCCCC3)NC(=N)N(C3CCOCC3)C2=O)cc1 (stereo not drawn) [Example 331, 5-cyclohexyl-2-imino-5-(4-methoxy-phenyl)-3-(oxan-4-yl)imidazolidin-4-one]
IC50 ([1]; Table 13, read-out: PM-2 IC50): 58.1 nM
IC50 (recombinant human BACE1): ~10000 nM
IC50 [2, 3]: 0.354 µM

COc1ccc(C2(c3ccncc3)NC(=N)N(C3CCOCC3)C2=O)cc1 (stereo not drawn) [Example 334, 2-imino-5-(4-methoxyphenyl)-3-(oxan-4-yl)-5-(pyridin-4-yl)-imidazolidin-4-one]
IC50 ([1]; Table 13, read-out: PM-2 IC50): 85.9 nM
IC50 (recombinant human BACE1): > 10000 nM
inhibition of growth at 1 µM [2]: 14%

N=C1NC(c2ccccc2)(c2ccccc2)C(=O)N1C1CCCCC1 [Example 100, 3-cyclohexyl-2-imino-5,5-diphenyl-imidazolidin-4-one]
IC50 ([1]; Table 13, read-out: PM-2 IC50): 28.7 nM
IC50 (recombinant human BACE1): > 10000 nM
IC50 [2, 3]: 3.85 µM
IC50 [2, 4]: 3.85 µM

COc1ccc(C2(c3ccc(OC)cc3)NC(=N)N(CC3CCN(C)CC3)C2=O)cc1 [Example 308, 2-imino-5,5-bis(4-methoxyphenyl)-3-[(1-methylpiperidin-4-yl)methyl]imidazolidin-4-one]
IC50 ([1]; Table 13, read-out: PM-2 IC50): 75.4 nM
IC50 (recombinant human BACE1): > 10000 nM
IC50 [2, 3]: 0.677 µM

N#Cc1cncc(-c2cccc(C3(C4CC4)NC(=N)N(C4CCCCC4)C3=O)c2)c1 (stereo not drawn) [Example 513, 5-(3-(1-cyclohexyl-4-cyclopropyl-2-imino-5-oxoimidazolidin-4-yl)phenyl)nicotinonitrile]
IC50 ([1]; Table 13, read-out: PM-2 IC50): 219 nM
IC50 (recombinant human BACE1): 6640 nM
IC50 [2, 3]: 0.4 µM

COc1ccc(C2(C3CCCC3)NC(=N)N(C3CCOCC3)C2=O)cc1 (stereo not drawn) [Example 335, 5-cyclopentyl-2-imino-5-(4-methoxy-phenyl)-3-(oxan-4-yl)imidazolidin-4-one]
IC50 ([1]; Table 13, read-out: PM-2 IC50): 90.7 nM
IC50 (recombinant human BACE1): > 10000 nM
IC50 [2, 3]: 0.377 µM

COc1ccc(C2(c3ccccn3)NC(=N)N(C3CCOCC3)C2=O)cc1 (stereo not drawn) [Example 332, 2-imino-5-(4-methoxyphenyl)-3-(oxan-4-yl)-5-(pyridin-2-yl)-imidazolidin-4-one]
IC50 ([1]; Table 13, read-out: PM-2 IC50): 216 nM
IC50 (recombinant human BACE1): > 10000 nM
inhibition of growth at 1 µM [2]: 25%

COc1ccc(C2(c3ccc(OC)cc3)NC(=N)N(C3CCN(C(C)=O)CC3)C2=O)cc1 [Example 310, 3-(1-acetylpiperidin-4-yl)-2-imino-5,5-bis(4-methoxyphenyl)imidazolidin-4-one]
IC50 ([1]; Table 13, read-out: PM-2 IC50): 5.84 nM
IC50 (recombinant human BACE1): ~2600 nM
inhibition of growth at 1 µM [2]: 72%

COc1ccc(C2(c3ccc(OC)cc3)NC(=S)N(C3CCCCC3)C2=O)cc1
IC50 ([1]; Table 8, read-out: PM-II IC50): > 10000 nM
IC50 ([2]; 3D7, Table 8, read-out: Pf 3D7 IC50): > 5 µM

COc1cccc(C2(c3cccc(OC)c3)NC(=N)N(C3CCCC3)C2=O)c1 [Example 168, 3-cyclopentyl-2-imino-5,5-bis(3-methoxyphenyl)-imidazolidin-4-one]
IC50 ([1]; Table 13, read-out: PM-2 IC50): 110 nM
IC50 [2, 5]: 1.09 µM

COc1ccc(C2(c3ccc(OC)cc3)NC(=N)N(CC3CCCO3)C2=O)cc1 (stereo not drawn) [Example 274, 2-imino-5,5-bis(4-methoxyphenyl)-3-(oxolan-2-ylmethyl)-imidazolidin-4-one]
IC50 ([1]; Table 13, read-out: PM-2 IC50): 11.4 nM
IC50 [2, 5]: 0.633 µM

COc1ccc(C2(c3ccc(OC)cc3)NC(=N)N(Cc3c(C)cccc3C)C2=O)cc1 [Example 278, 3-[(2,6-dimethyl-phenyl)methyl]-2-imino-5,5-bis(4-methoxyphenyl)-imidazolidin-4-one]
IC50 ([1]; Table 13, read-out: PM-2 IC50): 2.76 nM
IC50 [2, 5]: 1.04 µM

N=C1NC(c2cccc(-c3cccnc3)c2)(C2CCCCC2)C(=O)N1C1CCOCC1 (stereo not drawn) [Example 517, 5-cyclohexyl-2-imino-5-(3-(pyridin-3-yl)phenyl)-3-(tetrahydro-2H-pyran-4-yl)imidazolidin-4-one]
IC50 ([1]; Table 13, read-out: PM-2 IC50): 125 nM
IC50 (recombinant human BACE1): 14700 nM
IC50 [2, 3]: 0.35 µM

N=C1NC(c2ccccc2)(c2cccc(OCc3ccccc3)c2)C(=O)N1C1CCCCC1 (stereo not drawn) [Example 228, 5-[3-(benzyloxy)-phenyl]-3-cyclohexyl-2-imino-5-phenylimidazolidin-4-one]
IC50 ([1]; Table 13, read-out: PM-2 IC50): 2.89 nM
IC50 ([2]; 3D7, Table 11, read-out: Pf 3D7 IC50): 0.641 µM
IC50 [2, 5]: 0.641 µM

COc1ccc(C2(c3ccc(OC)cc3)NC(=N)N(CC(C)(C)C)C2=O)cc1 [Example 252, 3-(2,2-dimethylpropyl)-2-imino-5,5-bis(4-methoxyphenyl)-imidazolidin-4-one]
IC50 ([1]; Table 13, read-out: PM-2 IC50): 5.28 nM
IC50 [2, 5]: 0.266 µM
